According to patent US20250303006A1, “BIOCOMPATIBLE ANTISEPTIC COMPOSITION CONTAINING 9-HYDROXYCALABAXANTHONE AND/OR RELATED XANTHONES” (UNIVERSITAT DE LES ILLES BALEARS, priority 2022, published 2025):

Key:
[1] = test system: human gingival fibroblast cells; experiment: LDH cytotoxicity in immortalized human gingival fibroblasts; assay type: cell-based
Procedure: Cells were seeded in 48-well plates at a density of 2×10^4 cells/well. When the cells reached confluence, they were treated with different concentrations of HCX, and cytotoxicity was determined.
48 hours after seeding the iHGF cells in 48-well plates, cell inflammation was induced by means of adding 1 μg/ml of P. gingivalis lipopolysaccharide (LPS) (InvivoGen, San Diego, CA, USA) and the cells were treated with different concentrations of HCX (0.00002, 0.0002, 0.002%) in a fibroblast medium with 50 μg/ml of ascorbic acid (Sigma-Aldrich, St. Louis, MO, USA) for 48 hours. Images of the cells were taken with a bright field inverted microscope (Nikon Eclipse TS100) before treatment and 24 hours and 48 hours after treatment.
To estimate the cytotoxicity of the different concentrations of HCX, the presence of lactate dehydrogenase (LDH) in the culture media 48 h after pro-inflammatory stimulation with LPS and treatment with HCX was used as the cell death index. Following the manufacturer's instructions (Cytotoxicity Detection kit, Roche Diagnostics, Mannheim, Germany), LDH activity was determined spectrophotometrically after a 30-minute incubation at room temperature (RT) of 50 μl of culture media and 50 μl of the reaction mixture, measuring nicotinamide adenine dinucleotide (NADH) oxidation at 490 nm in the presence of pyruvate. Results were presented in relation to LDH activity of the media of the cells seeded without treatment (negative control, 0% cell death) and in relation to cells treated with 1% Triton X-100 (positive control, 100% death) using the following equation: Cytotoxicity (%)=[(expected value−negative control)/(positive control−negative control)]×100.
Different hydrogel formulations with and without 0.05% of HCX (HA, GelMa, Alginate and HPMC) and commercial gel containing 0.2% chlorhexidine and unmodified HA (Periokin Hyaluronic 1%, Laboratorios Kin, Commercial HA 0.2% CHX) were used for studies with gingival fibroblasts and S. epidermidis. Cells and bacteria without hydrogels served as negative control (C−). Gels at a concentration of 5% (v/v) were used for cell and bacterial studies.
Immortalized human gingival fibroblasts were cultured like in experiment 1 of section 1.2. The cells were treated with different hydrogel formulations with and without 0.05% of HCX (HA, GelMa, Alginate and HPMC) and commercial gel containing 0.2% chlorhexidine and unmodified HA (Periokin Hyaluronic 1%, Laboratorios Kin, commercial HA 0.2% CHX) in a fibroblast medium for 24 hours (n=4). Cell cytotoxicity was measured, like in experiment 1 of section 1.4.
16.1. […]
Immortalized human gingival fibroblasts were cultured like in experiment 1 of section 1.2. […] Cell cytotoxicity was measured, like in experiment 1 of section 1.4.

P. gingivalis = P. gingivalis culture and proliferation assay (growth rate, live/dead ratio); assay type: cell-based, Porphyromonas gingivalis; conditions: 0.002% HCX, 10 h
Procedure: Bacterium P. gingivalis (ATCC 33277TM, Manassas, VA) was cultured in brain heart infusion (BHI) broth (Scharlab, Barcelona, Spain), supplemented with 0.5 g/l of L-cysteine hydrochloride (Thermo Fisher Scientific), 5.0 mg/I of hemin (Thermo Fisher Scientific), and 1.0 mg/I of vitamin K (Thermo Fisher Scientific) in anaerobic conditions (10% H2, 10% CO2, and 80% N2) achieved with an anaerobiosis sachet and jar (Oxoid Anaerogen™, Thermo Fisher Scientific) at 37° C. for 24-72 h.
Bacteria P. gingivalis were cultured from existing frozen bacteria in BHI broth. After one night of incubation, 1 ml of bacterial suspension (˜3×10^8 bacteria/ml) was treated with different concentrations of HCX (0.00002, 0.0002, 0.002%) for 10 hours in anaerobic conditions (10% H2, 10% CO2, and 80% N2) at 37° C. At regular intervals (0 h and 10 h), optical density (OD) was measured at 600 nm to determine bacterial proliferation (PowerWave Ht, Biotekinstruments, Winooski, VT). […] The proportion of living bacteria/dead bacteria was determined using the LIVE/DEAD BacLight bacterial viability kit (Invitrogen, Thermo Fisher Scientific, Waltham, MA, USA), following the manufacturer's instructions.
Two different concentrations of HA formulated with HCX (0.025 and 0.05%) were used in the present study. […]

C. acnes = C. acnes culture and proliferation assay; assay type: cell-based, Cutibacterium acnes; conditions: 0.0002% HCX, 24 h
Procedure: C. acnes 5684 (CECT, Valencia, Spain) was grown on Tryptic soy broth (TSB) (Scharlab), supplemented with 0.5 g/I L-Cysteine hydrochloride (Thermo Fisher Scientific), 1.0 mg/I hemin (Thermo Fisher Scientific) and 5.0 mg/I glucose (Scharlab) under anaerobic conditions (10% H2, 10% CO2 and 80% N2) achieved with an Oxoid Anaerogen™ sachet (Thermo Fisher Scientific) at 37° C. for 48 h. After overnight incubation, 1 mL of C. acnes was incubated with different concentrations of CHX (0.01, 0.005, 0.003, 0.001%) and HCX (0.003, 0.002, 0.001, 0.0002%) for 24 hours at 37° C. under anaerobic conditions achieved with an Oxoid Anaerogen™ sachet. Bacterial suspension without treatment served as negative control (C−). The optical density (OD) was measured at 600 nm at 0 h and 24 h to determine bacterial proliferation (PowerWave Ht). The bacterial growth rate (μ) was calculated during the exponential growth phase following the equation ln ODt−ln OD0=μ×(t−t0) (n=4). The live/Dead ratio of bacteria was determined using the LIVE/DEAD BacLight bacterial viability kit (Invitrogen), following the manufacturer's instructions. The assays were carried out in triplicate.

Question: Which “cytotoxicity evaluated by activity of lactate dehydrogenase (LDH) released into the medium” value ([1]; HCX 0.00002, 0.0002, 0.002%, 48 h, LPS-stimulated iHGF) does the source give for `COc1c(O)cc2oc3cc4c(c(O)c3c(=O)c2c1CC=C(C)C)C=CC(C)(C)O4` [HCX, 9-hydroxycalabaxanthone] here?
Answer: Its value is “not observed”.

Question: What about the “concentration that can be applied to cells and tissues” value ([1]; formulated in solution) of the same molecule?
Answer: Its value is “up to 0.002%”.

Question: What about the bacteria eliminated (P. gingivalis) of the same molecule?
Answer: The bacteria eliminated was 100%.

Question: And the bacteria eliminated (C. acnes)?
Answer: Its bacteria eliminated is 96%.
